Reference: patent publication US20130096092A1, “THIOETHER PRODRUG COMPOSITIONS AS ANTI-HIV AND ANTI-RETROVIRAL AGENTS” (Health and Human Services, priority 2010, published 2013)
Where two headings read alike, the source gives them in different places.

What was measured:
[1] = Compound toxicity in PBMC; assay type: cell-based; settings: human, peripheral blood mononuclear cells (PBMC); Table 2; read-out: TC50, PBMC
Description: (§1) The HIV cytoprotection assay has been previously described in Weislow, O, S. et al., J. Natl. Cancer Inst. 81, 577-86 (1989); Rice, W. G. et al., Antimicrob. Agents Chemother. 41, 419-26 (1997), and Rice, W. G. et al., Proc. Natl. Acad. Sci. USA 90, 9721-4 (1993). CEM-SS cells infected with HIV-1IIIB or monocyte-macrophages infected with HIVBaL were incubated with the compound for 6 days and antiviral activity determined by measurement of cell survival (cytoprotection) using XTT (2,3-bis(2-methoxy-4-nitro-5-sulfophenyl)-5-[(phenylamino)carbonyl]-2H-tetrazolium hydroxide) dye reduction. AZT was used as a positive control for all assays with each assay performed in duplicate with triplicate determinations per condition. Compound toxicity was measured the same way in uninfected CEM-SS cells. Effective antiviral concentrations providing 50% cytoprotection (EC50) and cellular growth inhibitory concentrations causing 50% cytotoxicity (IC50) were calculated.
(§2) Four compounds along with a positive control were assayed for antiviral activity using the XTT cytoprotection assay as described in Example 4. The cells used were CEM-SS cells infected with HIV-1RF, monocyte-macrophages infected with HIVBaL, and peripheral blood mononuclear cells (PBMC) infected with HIV-1HT/92/599. The compounds are compound 8 (comparative), 7a (invention), 10 (invention), 11 (invention), and 12 (invention).

[2] = tested on: HIV-1IIIB; assay: XTT cytoprotection assay, CEM-SS cells infected with HIV-1IIIB; assay type: cell-based; settings: Human immunodeficiency virus 1, 144 h, Table 1, 6 days, read-out: EC50 (50% cytoprotection), CEM-SS cells
Description: as §1
(§3) Three compounds were assayed for antiviral activity using the XTT cytoprotection assay in CEM-SS cells infected with HIV-1IIIB and in monocyte-macrophages infected with HIVBaL and assayed for virucidal activity. The compounds are compound 7a (invention), 8 (comparative), and 7f (comparative).

[3] = tested on: HIV-1RF; assay: XTT cytoprotection assay, CEM-SS cells infected with HIV-1RF; assay type: cell-based; settings: Human immunodeficiency virus 1, Table 2, read-out: EC50 (50% cytoprotection), CEM-SS cells
Description: as §1, §2

[4] = tested on: HIVBaL; assay: XTT cytoprotection assay, monocyte-macrophages infected with HIVBaL; assay type: cell-based, HIV; settings: for EC50: monocyte-macrophages infected with HIVBaL, XTT
Description: as §1
as §3, with “(comparative). The structure of compound 8 is as follows:” for “(comparative).”
as §2

[5] = Compound toxicity in monocyte-macrophages; assay type: cell-based; settings: human, monocyte-macrophages; Table 1; read-out: TC50, Monocytes-macrophages
[6] = tested on: monocyte-macrophages; assay: Compound toxicity in monocyte-macrophages; assay type: cell-based; settings: Table 2; read-out: TC50, Monocyte/Macrophage
[7] = tested on: HIV-1HT/92/599; assay: XTT cytoprotection assay, PBMC infected with HIV-1HT/92/599; assay type: cell-based; settings: Human immunodeficiency virus 1; Table 2; PBMC infected with HIV-1HT/92/599, XTT; read-out: EC50 (50% cytoprotection), PBMC
Description: as §1, §2

[8] = tested on: HIV-1IIIB; assay: Cell-free virus inactivation (virucidal) assay; assay type: cell-based; settings: for EC50: Human immunodeficiency virus 1, Table 1, HIV-1IIIB incubated with compound 2 h at 37° C., then added to CEM-SS cells
Description: Cell-free virus inactivation assays were performed as previously described in Song, Y. et al., Bioorg. Med. Chem. 10, 1263-73 (2002). Briefly, HIV-1IIIB was incubated with three concentrations of each compound for 2 h at 37° C. and then pelleted at 4° C. for 90 minutes at 18,000×g. Following several washes with DPBS to remove unbound compound, the virus was resuspended in cell culture media and added to CEM-SS cells at a titer to yield 85-90% cell killing at day 6 post-infection.

[9] = Compound toxicity by XTT in uninfected CEM-SS cells; assay type: cell-based; settings: human; Table 1; uninfected CEM-SS cells, XTT; read-out: TC50, CEM-SS cells
Description: as §1

[10] = tested on: CEM-SS cells; assay: as above; assay type: cell-based; settings: Table 2; read-out: TC50, CEM-SS cells
Description: as §1

[11] = pH stability in buffers (RP-HPLC); assay type: physicochemical; settings: 250 μM; pH 5.0, 7.0, 9.0 buffers; 25° C., 30 days; FIG. 5
Description: This example illustrates the pH stability of compound 7a. Compound 7a was dissolved in DMSO and diluted into the 100 mM sodium acetate buffer at pH 5.0 (shown in FIG. 5 as diamonds), 100 mM sodium phosphate buffer at pH 7.0 (shown in FIG. 5 as circles), and 100 mM Tris-HCl buffer at pH 9.0 (shown in FIG. 5 as squares) at a final compound concentration of 250 μM. The samples were incubated at 25° C. over the course of 30 days and the amount of intact compound was measured over time using RP-HPLC. The results are illustrated in FIG. 5.

[12] = Human plasma stability (RP-HPLC); assay type: in vitro ADME; settings: 20 μM in 50% human plasma in PBS, 37° C., 1 hour; FIG. 7
Description: Compound 8 (comparative), compound 7a (invention), compound 10 (invention), compound 11 (invention), and compound 12 (invention) were dissolved in DMSO and diluted into 50% human plasma in PBS buffer at a final concentration of 20 μM. The samples were incubated at 37° C. for 1 hour and the amount of intact compound measured using RP-HPLC. The results are illustrated in FIG. 7.

[13] = Stability in vaginal fluid simulant (RP-HPLC); assay type: physicochemical; settings: 400 μM; 25° C., 30 days; FIG. 6; compared with compound 8
Description: The final concentration of the compounds was 400 μM. The samples were incubated at 25° C. over the course of 30 days and the amount of intact compound was measured over time using RP-HPLC. […] The results are illustrated in FIG. 6.

[14] = Human immunodeficiency virus 1, 144 h, Table 1, 6 days, read-out: EC50 (50% cytoprotection), Monocytes-macrophages
[15] = Human immunodeficiency virus 1, Table 2, read-out: EC50 (50% cytoprotection), Monocyte/Macrophage

Compound	CC50 at 6 days [1] [µM]	EC50 [2] [µM]	EC50 [3] [µM]	EC50 [4, 14] [µM]	EC50 [4, 15] [µM]	CC50 at 6 days [5] [µM]	CC50 [6] [µM]	EC50 [7] [µM]	EC50 [8] [µM]	CC50 at 6 days [9] [µM]	CC50 [10] [µM]	pH stability, intact compound over time [11]	stability in human plasma, intact compound [12]	stability in vaginal fluid simulant, intact compound over time [13]	activity in cytoprotection assay against infected monocytes-macrophages ([4]; as compared to compound 7a)	activity in the antiviral assay against HIV-1IIIB ([8]; virucidal assay, as compared to compound 7a)
CC(=O)Sc1ccccc1C(=O)NCCC(N)=O [Compound 8]	> 100	0.6	0.6	2	1.97	> 100	> 100	5.74	0.9	> 100	> 100	–	–	–	–	–
CC(C)C(=O)Oc1ccc(CSc2ccccc2C(=O)NCCC(N)=O)cc1 [Compound 7a, N-{2-[4-(isopropylcarbonyloxy)benzylthio]benzoyl}-β-alaninamide]	> 100	0.2	0.2	0.6	0.62	> 100	> 100	4.06	9.8	> 100	> 100	most stable at acidic pH	did not exhibit stability	significantly more stable	–	–
NC(=O)CCNC(=O)c1ccccc1SCc1ccccc1 [Compound 7f]	–	34.9	–	> 100	–	> 100	–	–	> 100	> 100	–	–	–	–	inactive	inactive
